We go through ten compounds from ChEMBL document CHEMBL3046649, “Fungitoxic and Phytotoxic Activities of Cinnamic Acid Esters and Amides” (2000).

Experiment [1] relates to Brassica rapa subsp. chinensis. Kind of experiment: whole plant or invertebrate. It counts as functional. Conditions: 72 h, read-out: GI.
Description: Phytotoxicity against Brassica rapa subsp. chinensis assessed as growth inhibition of hypocotyl at 100 ppm treated to seeds after 3 days
Experiment [2] concerns Brassica rapa subsp. chinensis. Kind of experiment: whole plant or invertebrate. It counts as functional. Particulars: 72 h, read-out: GI. This is another data set of the same source.
Description: Phytotoxicity against Brassica rapa subsp. chinensis assessed as growth inhibition of radicle at 100 ppm treated to seeds after 3 days
Experiment [3] relates to Pythium. Kind of experiment: microbe, parasite or virus in culture. Particulars: read-out: GI. The format is functional.
Description: Fungitoxic activity against Pythium sp. assessed as mycelial growth inhibition at 100 ppm after 4 to 5 days by agar dilution method
Experiment [4] has as its system Athelia rolfsii. Kind of experiment: microbe, parasite or virus in culture. It counts as functional. Conditions: Agroathelia rolfsii, read-out: GI.
Description: Fungitoxic activity against Athelia rolfsii assessed as mycelial growth inhibition at 100 ppm after 4 to 5 days by agar dilution method
For experiment [5], the system named is Athelia rolfsii. The experiment in a line: Fungitoxic activity against Athelia rolfsii assessed as mycelial growth inhibition at 10 ppm after 4 to 5 days by agar dilution method. It counts as functional. Particulars: Agroathelia rolfsii; read-out: GI.
The subject of experiment [6] is Pythium. Kind of experiment: Fungitoxic activity against Pythium sp. assessed as mycelial growth inhibition at 10 ppm after 4 to 5 days by agar dilution method. Conditions: read-out: GI.

Molecules are shown by their SMILES.

For the compound `COC(=O)/C=C/c1ccc(Cl)cc1Cl` [METHYL 3-(2,4-DICHLOROPHENYL)ACRYLATE], the inhibition of growth at 100 ppm in experiment [1] came to 66%; in experiment [2], 84%; in experiment [3], 68%; in experiment [4], 75%. In addition, the inhibition of growth at 10 ppm in experiment [5] was 43%; in experiment [6], 39%.
`COC(=O)/C=C/c1ccc(Cl)cc1` [METHYL 3-(4-CHLOROPHENYL)ACRYLATE]: the inhibition of growth at 100 ppm in experiment [1] worked out at 84%; in experiment [2], 93%; in experiment [3], 99%; in experiment [4], 94%. In addition, the values for the inhibition of growth at 10 ppm in experiment [5] and in experiment [6] were 52% and 19%, respectively.
As to `CCCCNC(=O)/C=C/c1ccc(Cl)cc1` [N-BUTYL-3-(4-CHLOROPHENYL)ACRYLAMIDE], the inhibition of growth at 100 ppm in experiment [1] was 44%; in experiment [2], 62%; in experiment [3], 80%; in experiment [4], 93%. Besides, the figures for the inhibition of growth at 10 ppm in experiment [5] and in experiment [6] were 58% and 45%, respectively.
With `CCCCNC(=O)/C=C/c1ccc(C(C)C)cc1` [N-BUTYL-3-(4-ISOPROPYLPHENYL)ACRYLAMIDE], the inhibition of growth at 100 ppm in experiment [1] was 41%; in experiment [2], 51%; in experiment [3], 90%; in experiment [4] it was 92%. The inhibition of growth at 10 ppm in experiment [5] was 28%; in experiment [6], 37%.
Turning to `CCCCNC(=O)/C=C/c1ccccc1` [N-BUTYLCINNAMAMIDE], the inhibition of growth at 100 ppm in experiment [1] is 50%; in experiment [2], 71%; in experiment [3], 84%; in experiment [4] it was 94%. The results for the inhibition of growth at 10 ppm in experiment [5] and in experiment [6] were 45% and 33%, respectively.
Turning to `CCCCCCNC(=O)/C=C/c1ccccc1` [N-HEXYLCINNAMAMIDE], the inhibition of growth at 100 ppm amounted to 55% in experiment [1], 82% in experiment [2], 87% in experiment [3] and 91% in experiment [4]. For the same compound, the inhibition of growth at 10 ppm stood at 32% in experiment [5] and 14% in experiment [6].
As for `CC(C)CNC(=O)/C=C/c1ccc(C(C)C)cc1` [N-ISOBUTYL-3-(4-ISOPROPYLPHENYL)ACRYLAMIDE], the inhibition of growth at 100 ppm in experiment [1] was found to be 34%; in experiment [2] it was 45%; in experiment [3], 58%; in experiment [4] it was 42%. Moreover, the figures for the inhibition of growth at 10 ppm in experiment [5] and in experiment [6] were 37% and 42%, respectively.
With `CC(C)CNC(=O)/C=C/c1ccccc1` [N-ISOBUTYLCINNAMAMIDE], the inhibition of growth at 100 ppm in experiment [1] is 34%; in experiment [2], 78%; in experiment [3] it was 74%; in experiment [4], 82%. Further, the inhibition of growth at 10 ppm was found to be 29% in experiment [5] and 23% in experiment [6].
As for `CC(C)NC(=O)/C=C/c1ccc(C(C)C)cc1` [N-ISOPROPYL-3-(4-ISOPROPYLPHENYL)ACRYLAMIDE], the inhibition of growth at 100 ppm worked out at 50% in experiment [1], 62% in experiment [2], 62% in experiment [3] and 80% in experiment [4]. Also, the inhibition of growth at 10 ppm in experiment [5] and in experiment [6] was 40% each time.
In the case of `CC(C)NC(=O)/C=C/c1ccccc1` [N-ISOPROPYLCINNAMAMIDE], the inhibition of growth at 100 ppm in experiment [1] was 39%; in experiment [2], 76%; in experiment [3], 47%; in experiment [4], 96%. The inhibition of growth at 10 ppm in experiment [5] stood at 17%; in experiment [6], 0%.
